Experimental data published in US10342867B2 (priority 2014, dated 2019).

Legend:
[1] = rabbit, in vivo
[2] = rabbit, in vivo; remark: listed apart in the source
[3] = rabbit, in vivo; remark: listed apart in the source
[4] = rabbit, in vivo; remark: listed apart in the source
[5] = rabbit, in vivo; remark: listed apart in the source

Substance: Monosulphate heptadecylmaltose [M10-MONO]
- Reactogenicity 1 week post immunization 2, GMS [1]: 1.34
- Reactogenicity 1 week post immunization 2, antilog [1]: 22
- Reactogenicity 4 weeks post immunization 1, GMS [1]: 1.26
- Reactogenicity 4 weeks post immunization 1, antilog [1]: 18
- Body weight gain one week post immunization 1, mean [2]: 35 g
- Body weight gain two weeks post immunization 1, mean [2]: 49 g
- Increase in body temperature one day post immunization 1, mean [3]: 0.5 °C
- Increase in body temperature two days post immunization 1, mean [3]: 0.1 °C
- increases in body temperature in comparison to the corresponding POLY counterpart [3]: lower increases
- Number of animals demonstrating a detectable adverse local reaction four weeks after the first immunization [4]: 0/6
- Number of animals demonstrating a detectable adverse local reaction one week after the second immunization [4]: 0/6
- Body temperature one day after the first immunization, Mean [5]: 38.9 °C
- Body temperature one day after the second immunization, Mean [5]: 39.2 °C

Substance: maltose decanoic acid polysulphate ester [M10-POLY]
- Reactogenicity 1 week post immunization 2, GMS [1]: 3.37
- Reactogenicity 4 weeks post immunization 1, GMS [1]: 1.73
- Reactogenicity 4 weeks post immunization 1, antilog [1]: 53
- Body weight gain one week post immunization 1, mean [2]: 38 g
- Body weight gain two weeks post immunization 1, mean [2]: 53 g
- Increase in body temperature one day post immunization 1, mean [3]: 0.7 °C
- Increase in body temperature two days post immunization 1, mean [3]: 0.5 °C

Substance: Monosulphate tetradodecyl galactose [G12-MONO]
- Number of animals demonstrating a detectable adverse local reaction four weeks after the first immunization [4]: 1/6 (discoloration, loss
- Number of animals demonstrating a detectable adverse local reaction one week after the second immunization [4]: 1/6 (granuloma)
- Body temperature one day after the first immunization, Mean [5]: 39.1 °C
- Body temperature one day after the second immunization, Mean [5]: 39.3 °C

Substance: Monosulphate heptadodecylmaltose [M12-MONO]
- Number of animals demonstrating a detectable adverse local reaction four weeks after the first immunization [4]: 0/6
- Number of animals demonstrating a detectable adverse local reaction one week after the second immunization [4]: 0/6
- Body temperature one day after the first immunization, Mean [5]: 39.0 °C
- Body temperature one day after the second immunization, Mean [5]: 39.2 °C
